From patent US20160030407A1, “Method of Treating Inflammatory Lung Disease” (priority 2010, published 2016)
Values joined by “and” are separate entries in the source; they are usually repeats but may differ in a detail not shown here. Equal entries are not always repeated. “Also recorded” adds a separate entry of the source.

Legend:
[1] = Physical signs after single i.v. dose (Example 3); format: in vivo, Sprague-Dawley rats; conditions: rat, nicotine 0.4 mg/kg, anatabine 0.10, 0.75, 1.0 mg/kg
Experimental: Four aliquots of each dose level formulation were collected and stored at −80° C. The test compound, corresponding dose level, number of animals, and sample collection times for Phase I of the study are shown in Table 3. The test compound, corresponding dose level, number of animals, and sample collection times for Phase II of the study are shown in Table 4. The physical signs of each animal were monitored following administration of the test compound.

[2] = Single i.v. dose toxicity: body weights and food consumption; format: in vivo, Sprague-Dawley rats; conditions: for Mean food consumption/day: 14 days, 0.1 mg/kg
Experimental: (§1) Body weight and food consumption was measured daily for 14 days. On day 15, urine was collected on all surviving animals. The animals were euthanized and bled via cardiac puncture, and blood was collected for analysis. Tissues were collected, weighed, evaluated for gross abnormalities, and stored in 10% neutral-buffered formalin.
All animals were observed daily.

[3] = Single i.v. dose toxicity: necropsy observations and organ weights; format: in vivo, Sprague-Dawley rats
Experimental: as §1
(§2) On day 15, urine was collected on all surviving animals for urinalysis. The animals were euthanized and bled via cardiac puncture. Blood was collected for hematology, clinical chemistry, and coagulation analysis. Tissues were collected, weighed, and stored in 10% neutral-buffered formalin for possible future analysis.

[4] = Single i.v. dose toxicity: hematology; format: in vivo, Sprague-Dawley rats
Text: as §2

nAChR α3/β4 = nAChR α3/β4 (Homo sapiens, UniProt P30926+P32297); format: cell-based; conditions: with 10 μM Ach
Experimental: (§3) Briefly, cells were incubated with […] dye for 30 min at 37° C.

nAChR α4/β2 = target: T1, nAChR α4/β2 (Homo sapiens, UniProt P17787+P43681); format: cell-based; conditions: 100 μM Ach + 0.3 μM epibatidine; not concentration-dependent, IC50s could not be determined
T1 construct: host or cells: HEK293 cells, transient
Experimental: as §3

[5] = Anatabine 0.1 mg/kg, F, individual rats
[6] = Anatabine 0.1 mg/kg, M, individual rats
[7] = Anatabine 0.75 mg/kg, F, individual rats
[8] = Anatabine 0.75 mg/kg, M, individual rats
[9] = single i.v. 0.1 mg/kg, male rats
[10] = Group B: Anatabine 0.1 mg/kg (Females), individual animals
[11] = Group B: Anatabine 0.1 mg/kg (Males), individual animals
[12] = Group C: Anatabine 0.75 mg/kg (Females), individual animals
[13] = Group C: Anatabine 0.75 mg/kg (Males), individual animals
[14] = female animals, Anatabine 0.1 mg/kg, n = 5
[15] = female animals, Anatabine 0.75 mg/kg, n = 5
[16] = male rats, single i.v. 0.1 mg/kg, day 15
[17] = male rats, single i.v. 0.75 mg/kg anatabine, day 15
[18] = 0.1 mg/kg, gender F, group mean
[19] = 0.1 mg/kg, gender M, group mean
[20] = 0.75 mg/kg, gender F, group mean
[21] = 0.75 mg/kg, gender M, group mean
[22] = anatabine 0.1 mg/kg, female rats, individual animals
[23] = anatabine 0.1 mg/kg, male rats, individual animals
[24] = anatabine 0.75 mg/kg, female rats, individual animals
[25] = anatabine 0.75 mg/kg, male rats, individual animals

nAChR α3/β4, sequence (P32297 32-505): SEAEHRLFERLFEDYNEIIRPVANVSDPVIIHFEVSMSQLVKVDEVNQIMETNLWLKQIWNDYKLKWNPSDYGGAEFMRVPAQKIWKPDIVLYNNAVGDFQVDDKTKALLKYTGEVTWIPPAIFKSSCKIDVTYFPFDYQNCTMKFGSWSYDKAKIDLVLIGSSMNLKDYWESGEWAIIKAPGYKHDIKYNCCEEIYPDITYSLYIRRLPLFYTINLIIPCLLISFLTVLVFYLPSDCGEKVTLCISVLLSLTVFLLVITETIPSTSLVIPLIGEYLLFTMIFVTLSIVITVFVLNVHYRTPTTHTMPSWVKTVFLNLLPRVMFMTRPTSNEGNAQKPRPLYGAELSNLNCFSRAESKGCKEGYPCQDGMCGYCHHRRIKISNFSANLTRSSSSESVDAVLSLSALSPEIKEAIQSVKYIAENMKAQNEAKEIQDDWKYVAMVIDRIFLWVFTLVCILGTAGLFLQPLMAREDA
nAChR α3/β4, sequence (P30926 22-498): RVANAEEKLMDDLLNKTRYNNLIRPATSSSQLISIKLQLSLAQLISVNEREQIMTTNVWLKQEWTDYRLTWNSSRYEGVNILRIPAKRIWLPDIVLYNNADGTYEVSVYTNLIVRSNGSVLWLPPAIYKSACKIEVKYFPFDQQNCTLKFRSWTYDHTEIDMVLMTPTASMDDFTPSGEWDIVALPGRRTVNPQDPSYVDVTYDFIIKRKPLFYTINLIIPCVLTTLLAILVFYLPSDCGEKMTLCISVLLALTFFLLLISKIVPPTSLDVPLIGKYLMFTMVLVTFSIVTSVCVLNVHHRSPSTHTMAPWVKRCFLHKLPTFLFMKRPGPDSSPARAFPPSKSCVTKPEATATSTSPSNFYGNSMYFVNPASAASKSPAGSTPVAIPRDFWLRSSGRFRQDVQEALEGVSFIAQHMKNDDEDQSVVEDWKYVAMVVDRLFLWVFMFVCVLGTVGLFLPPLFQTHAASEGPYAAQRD
T1 sequence (P43681 29-627): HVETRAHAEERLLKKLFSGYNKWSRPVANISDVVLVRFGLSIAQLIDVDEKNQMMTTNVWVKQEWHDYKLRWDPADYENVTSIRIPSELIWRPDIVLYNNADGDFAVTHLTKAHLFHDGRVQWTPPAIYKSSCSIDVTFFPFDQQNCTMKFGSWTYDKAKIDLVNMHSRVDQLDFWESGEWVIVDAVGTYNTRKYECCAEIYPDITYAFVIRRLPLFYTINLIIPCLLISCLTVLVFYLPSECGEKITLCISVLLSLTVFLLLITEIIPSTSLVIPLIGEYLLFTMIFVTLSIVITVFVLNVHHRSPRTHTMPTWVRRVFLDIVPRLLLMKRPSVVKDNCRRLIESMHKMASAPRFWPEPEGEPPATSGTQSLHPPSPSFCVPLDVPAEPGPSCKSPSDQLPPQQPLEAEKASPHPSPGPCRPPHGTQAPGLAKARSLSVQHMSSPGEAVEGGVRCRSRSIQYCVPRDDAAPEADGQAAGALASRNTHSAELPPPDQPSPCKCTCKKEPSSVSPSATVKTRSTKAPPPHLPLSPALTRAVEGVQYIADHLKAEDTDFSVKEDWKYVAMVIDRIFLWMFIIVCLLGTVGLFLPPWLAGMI
T1 sequence (P17787 26-502): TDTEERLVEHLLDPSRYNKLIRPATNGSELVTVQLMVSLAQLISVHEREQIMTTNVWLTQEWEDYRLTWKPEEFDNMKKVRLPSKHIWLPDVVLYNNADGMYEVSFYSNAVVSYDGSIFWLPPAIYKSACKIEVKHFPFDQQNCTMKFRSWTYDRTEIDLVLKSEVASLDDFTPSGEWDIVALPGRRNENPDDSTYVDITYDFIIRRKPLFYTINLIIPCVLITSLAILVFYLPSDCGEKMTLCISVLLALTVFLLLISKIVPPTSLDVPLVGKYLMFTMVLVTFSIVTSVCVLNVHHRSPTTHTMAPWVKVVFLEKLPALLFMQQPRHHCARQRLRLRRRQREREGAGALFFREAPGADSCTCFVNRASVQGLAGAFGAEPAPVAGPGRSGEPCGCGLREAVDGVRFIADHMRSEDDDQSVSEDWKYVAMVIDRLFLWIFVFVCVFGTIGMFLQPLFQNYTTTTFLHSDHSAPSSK

C1=CCC(c2cccnc2)NC1 (racemic) [Anatabine, 1,2,3,6-tetrahydro-[2,3′]bipyridinyl]
physical signs post dose [1]: no obvious adverse signs were observed | day 7 B.W. [2, 5]: 222.0 g | day 12 B.W. [2, 5]: 240.0 g | day 3 B.W. [2, 6]: 270.0 g | day 4 B.W. [2, 6]: 270.0 g | day 8 B.W. [2, 6]: 310.0 g | day 9 B.W. [2, 6]: 310.0 g | day 12 B.W. [2, 6]: 320.0 g | day 13 B.W. [2, 6]: 360 g | day 2 B.W. [2, 7]: 210.0 g | day 4 B.W. [2, 7]: 230.0 g and 220.0 g | day 8 B.W. [2, 7]: 220.0 g | day 2 B.W. [2, 8]: 240.0 g | day 8 B.W. [2, 8]: 300.0 g | day 13 B.W. [2, 8]: 330 g | Mean weight increase by day 14 ([2]; single i.v. 0.1 mg/kg, female rats): 39.0 g | Mean weight increase by day 14 [2, 9]: 132.5 g | Mean food consumption/day [2, 9]: 31.0 g | Mean food consumption/day ([2]; single i.v. 0.1 mg/kg, male rats, listed as anatabine): statistically higher | Mean weight increase by day 14 ([2]; single i.v. 0.75 mg/kg anatabine, female rats): 43.1 g | Mean weight increase by day 14 ([2]; single i.v. 0.75 mg/kg anatabine, male rats): 111.6 g | Tissue Collection Weights: Heart [3, 10]: 0.95 g | Tissue Collection Weights: Ovaries/uterus [3, 10]: 0.96 g and 0.84 g and 0.70 g | Tissue Collection Weights: Small intestine [3, 10]: 0.87 g and 0.71 g and 0.55 g and 0.49 g and 0.63 g | Tissue Collection Weights: Spleen [3, 10]: 0.79 g and 0.62 g and 0.51 g and 0.67 g and 0.65 g | Tissue Collection Weights: Thymus [3, 10]: 0.68 g and 0.59 g and 0.49 g and 0.71 g and 0.73 g | Tissue Collection Weights: Heart [3, 11]: 1.60 g | Tissue Collection Weights: Kidneys [3, 11]: 3.70 g | Tissue Collection Weights: Prostate [3, 11]: 0.72 g and 0.49 g and 0.73 g and 0.53 g and 0.48 g | Tissue Collection Weights: Small intestine [3, 11]: 0.61 g and 0.96 g and 0.88 g and 0.50 g and 0.35 g | Tissue Collection Weights: Spleen [3, 11]: 0.91 g and 0.66 g and 0.82 g and 0.93 g and 0.76 g | Tissue Collection Weights: Thymus [3, 11]: 0.74 g (2×) and 0.76 g and 0.71 g and 0.81 g | Tissue Collection Weights: Brain [3, 12]: 1.93 g | Tissue Collection Weights: Heart [3, 12]: 0.99 g | Tissue Collection Weights: Kidneys [3, 12]: 2.20 g | Tissue Collection Weights: Lungs [3, 12]: 1.30 g | Tissue Collection Weights: Ovaries/uterus [3, 12]: 0.81 g and 1.50 g and 0.72 g | Tissue Collection Weights: Small intestine [3, 12]: 0.72 g and 0.37 g and 0.85 g and 0.47 g | Tissue Collection Weights: Spleen [3, 12]: 0.70 g and 0.65 g (2×) and 0.51 g and 0.49 g | Tissue Collection Weights: Thymus [3, 12]: 0.56 g and 0.53 g and 0.63 g and 0.52 g and 0.54 g | Tissue Collection Weights: Brain [3, 13]: 2.00 g | Tissue Collection Weights: Prostate [3, 13]: 0.49 g (2×) and 0.65 g and 0.46 g and 0.45 g | Tissue Collection Weights: Small intestine [3, 13]: 0.54 g and 0.56 g and 0.41 g and 0.47 g | Tissue Collection Weights: Spleen [3, 13]: 0.71 g and 0.63 g and 0.79 g and 0.93 g and 0.64 g | Tissue Collection Weights: Testes [3, 13]: 2.70 g | Tissue Collection Weights: Thymus [3, 13]: 0.52 g and 0.67 g and 0.69 g and 0.47 g | Organ Weight Brain, Mean [3, 14]: 1.86 g | Organ Weight Heart, Mean [3, 14]: 1.13 g | Organ Weight Liver, Mean [3, 14]: 10.84 g | Organ Weight Lungs, Mean [3, 14]: 1.41 g | Organ Weight Ovaries/uteris, Mean [3, 14]: 1.14 g | Organ Weight, Small intestine (mean) [3, 14]: 0.65 g | Organ Weight, Spleen (mean) [3, 14]: 0.65 g | Organ Weight, Thymus (mean) [3, 14]: 0.64 g | Organ Weight Brain, Mean [3, 15]: 1.90 g | Organ Weight Heart, Mean [3, 15]: 1.11 g | Organ Weight Kidneys, Mean [3, 15]: 2.30 g | Organ Weight Liver, Mean [3, 15]: 10.42 g | Organ Weight Lungs, Mean [3, 15]: 1.45 g | Organ Weight Ovaries/uteris, Mean [3, 15]: 1.58 g | Organ Weight, Small intestine (mean) [3, 15]: 0.75 g | Organ Weight, Spleen (mean) [3, 15]: 0.60 g | Organ Weight, Thymus (mean) [3, 15]: 0.56 g | Organ Weight, Prostate (mean) [3, 16]: 0.59 g | Organ Weight, Small intestine (mean) [3, 16]: 0.66 g | Organ Weight, Spleen (mean) [3, 16]: 0.82 g | Organ Weight, Thymus (mean) [3, 16]: 0.75 g | Organ Weight, Prostate (mean) [3, 17]: 0.51 g | Organ Weight, Small intestine (mean) [3, 17]: 0.68 g | Organ Weight, Spleen (mean) [3, 17]: 0.74 g | Organ Weight, Thymus (mean) [3, 17]: 0.67 g | BASOPHIL [4, 18]: 0.0% | EOSINOPHIL [4, 18]: 0.0% | MCV [4, 18]: 60.0 fL | MONOCYTE [4, 18]: 1.8% | NEUTROPHIL SEG [4, 18]: 8.0% | PLATELET COUNT [4, 18]: 997300 µL⁻¹ | RBC [4, 18]: 7.8e+06 µL⁻¹ | RETICULOCYTE COUNT [4, 18]: 4.5% | WBC [4, 18]: 9300 µL⁻¹ | BASOPHIL [4, 19]: 0.0% | EOSINOPHIL [4, 19]: 0.2% | MONOCYTE [4, 19]: 2.0% | NEUTROPHIL SEG [4, 19]: 8.6% | PLATELET COUNT [4, 19]: 1.2486e+06 µL⁻¹ | RBC [4, 19]: 7.4e+06 µL⁻¹ | RETICULOCYTE COUNT [4, 19]: 5.5% | WBC [4, 19]: 15600 µL⁻¹ | BASOPHIL [4, 20]: 0.0% | EOSINOPHIL [4, 20]: 0.0% | MONOCYTE [4, 20]: 0.8% | NEUTROPHIL SEG [4, 20]: 8.6% | PLATELET COUNT [4, 20]: 1.2696e+06 µL⁻¹ | RBC [4, 20]: 7.5e+06 µL⁻¹ | RETICULOCYTE COUNT [4, 20]: 3.3% | WBC [4, 20]: 10300 µL⁻¹ | BASOPHIL [4, 21]: 0.0% | EOSINOPHIL [4, 21]: 0.0% | MCHC [4, 21]: 34.0% | MONOCYTE [4, 21]: 1.4% | NEUTROPHIL SEG [4, 21]: 9.8% | PLATELET COUNT [4, 21]: 1.3258e+06 µL⁻¹ | RBC [4, 21]: 7.5e+06 µL⁻¹ | RETICULOCYTE COUNT [4, 21]: 4.4% | WBC [4, 21]: 12100 µL⁻¹ | ANISOCYTOSIS [4, 22]: SLIGHT | BASOPHIL [4, 22]: 0% | EOSINOPHIL [4, 22]: 0% | HCT [4, 22]: 44% | HGB [4, 22]: 17 gm/dL | LYMPHOCYTE [4, 22]: 89% and 90% and 91% and 93% and 88% | MCHC [4, 22]: 34% | MONOCYTE [4, 22]: 3% and 2% (2×) and 1% (2×) | NEUTROPHILSEG [4, 22]: 8% (2×) and 7% and 6% and 11% | PLATELETEST [4, 22]: ADEQUATE; also recorded: DECREASED | POLYCHROMASIA [4, 22]: SLIGHT | RETICULOCYTE COUNT [4, 22]: 4.8% and 5.4% and 6.1% and 3.7% and 2.4% | ANISOCYTOSIS [4, 23]: SLIGHT | BASOPHIL [4, 23]: 0% | EOSINOPHIL [4, 23]: 0% (4×) and 1% | HCT [4, 23]: 45% | LYMPHOCYTE [4, 23]: 87% (2×) and 94% and 90% and 88% | MCHC [4, 23]: 34% (2×) and 32% | MONOCYTE [4, 23]: 1% (2×) and 3% (2×) and 2% | NEUTROPHILSEG [4, 23]: 12% and 3% and 7% and 10% and 11% | PLATELETEST [4, 23]: ADEQUATE; also recorded: INCREASED | POLYCHROMASIA [4, 23]: SLIGHT | RETICULOCYTE COUNT [4, 23]: 6.1% and 5.4% and 4.7% and 5.6% and 5.9% | ANISOCYTOSIS [4, 24]: SLIGHT | BASOPHIL [4, 24]: 0% | EOSINOPHIL [4, 24]: 0% | HGB [4, 24]: 15 gm/dL | LYMPHOCYTE [4, 24]: 93% (2×) and 87% and 91% and 89% | MONOCYTE [4, 24]: 1% (2×) and 0% (2×) and 2% | NEUTROPHILSEG [4, 24]: 6% and 12% and 9% (2×) and 7% | PLATELETEST [4, 24]: ADEQUATE; also recorded: INCREASED | POLYCHROMASIA [4, 24]: SLIGHT | RETICULOCYTE COUNT [4, 24]: 3.4% and 1.8% and 3.2% and 3.8% and 4.1% | ANISOCYTOSIS [4, 25]: SLIGHT | BASOPHIL [4, 25]: 0% | EOSINOPHIL [4, 25]: 0% | LYMPHOCYTE [4, 25]: 86% and 89% (2×) and 92% and 88% | MCH [4, 25]: 21 UUG and 22 UUG | MONOCYTE [4, 25]: 1% (3×) and 2% (2×) | NEUTROPHILSEG [4, 25]: 13% and 10% (3×) and 6% | PLATELETEST [4, 25]: ADEQUATE; also recorded: DECREASED | POLYCHROMASIA [4, 25]: SLIGHT | RETICULOCYTE COUNT [4, 25]: 3.6% and 4.2% and 4.1% and 4.7% and 5.3% | mean corpuscular hemoglobin concentration (MCHC) vs control ([4]; female rats, 0.1 mg/kg anatabine i.v.): small but statistically significant decrease | mean corpuscular volume (MCV) and mean corpuscular hemoglobin (MCH) vs control ([4]; female rats, […] anatabine, 0.75 mg/kg nicotine i.v.): small, but statistically significant decreases | potentiation (nAChR α3/β4): Neither nicotine nor anatabine potentiated | inhibition (nAChR α4/β2): inhibited receptor activity
